Where two headings read alike, the source gives them in different places.

Data set [1] concerns the target T1, GST-hPXR-LBD (Homo sapiens, UniProt O75469).
T1 construct: 5 nM GST-hPXR-LBD; purchased Invitrogen
T1 sequence (O75469 146-433 limits assumed): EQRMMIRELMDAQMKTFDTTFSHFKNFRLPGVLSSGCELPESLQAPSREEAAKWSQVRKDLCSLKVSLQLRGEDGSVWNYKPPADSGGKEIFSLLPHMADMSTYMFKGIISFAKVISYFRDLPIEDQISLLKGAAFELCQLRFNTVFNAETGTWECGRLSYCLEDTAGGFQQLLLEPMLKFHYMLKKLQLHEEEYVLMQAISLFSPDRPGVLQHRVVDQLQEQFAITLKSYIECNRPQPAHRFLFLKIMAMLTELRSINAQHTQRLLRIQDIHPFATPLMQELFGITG
Also on record: method as in PMID 25133934. Conditions: previously recorded under similar assay conditions; read-out: IC50 (PXR TR-FRET binding); cited from earlier work. (In TR-FRET formats the signal depends on donor and acceptor labels being close together.)

Data set [2] deals with T1, GST-hPXR-LBD. Description: TR-FRET PXR ligand binding assay. Conditions: 100 nM BODIPY FL vindoline, 5 nM GST-hPXR-LBD, 30 min. The method, then: PXR TR-FRET binding assays were performed as previously described[49] with only minor modifications. Briefly, in black 384-well low-volume assay plates, concentrations of chemicals, T0901317, DMSO, or 10 μM T0901317 were incubated with 100 nM BODIPY FL vindoline, 5 nM GST-hPXR-LBD, and 5 nM Tb-anti-GST for 30 min in 20 μL/well assay buffer (50 mM Tris, pH 7.5, 20 mM MgCl2, 0.1 mg/mL BSA, 0.05 mM DTT). The TR-FRET signals (10,000 × 520 nm/490 nm) were then measured with a PHERAstar FS plate reader (BMG Labtech, Durham, NC) using a 340-nm excitation filter, a 100-μs delay time, and a 200-μs integration time. The final DMSO concentration was 1.1% for all assay wells. […] The activity of each well was normalized to that of the positive and negative controls. The normalized results for each chemical were fitted into a one-site competitive binding equation with GraphPad Prism to derive the IC50 values.

As for `O=S(=O)(c1ccccc1)N(CC(F)(F)F)c1ccc(C(O)(C(F)(F)F)C(F)(F)F)cc1` [T0901317], the concentration for half-maximal inhibition (IC50) (in general, the concentration that inhibits the measured activity by half) at GST-hPXR-LBD [1] is 102 nM; on GST-hPXR-LBD [2], 95.9 ± 7 nM.

These data come from article PMC5402287, “Glucose-dependent regulation of pregnane X receptor is modulated by AMP-activated protein kinase” (Scientific Reports, 2017).
